Results reported in patent US20090068243A1, “Novel formulations for delivery of antiviral peptide therapeutics” (priority 2007, published 2009).

Legend:
[1] = Stability in aqueous solution (PBS), peptide remaining in solution by HPLC; type: physicochemical; details: 10 mg/ml in PBS, about pH 7.3 to 7.5, 37° C., time point of 1 week
584.000060 = system: 584.000060
Text: (§1) Assessment of biological properties included measurement of antiviral activity against HIV-1 strains. […] These assays score for reduction of infectious virus titer employing the indicator cell lines MAGI or the CCR5 expressing derivative cMAGI. Both cell lines exploit the ability of HIV-1 tat to transactivate the expression of a β-galactosidase reporter gene driven by the HIV-LTR. The β-gal reporter has been modified to localize in the nucleus and can be detected with the X-gal substrate as intense nuclear staining within a few days of infection. The number of stained nuclei can thus be interpreted as equal to the number of infectious virions in the challenge inoculum if there is only one round of infection prior to staining. […] In the MAGI and cMAGI assays, a 50% reduction in infectious titer (Vn/Vo=0.5) is significant, and provides the primary cutoff value for assessing antiviral activity (“IC50” is defined as the concentration of active ingredient resulting in a 50% reduction in infectious virus titer). […] The peptide (in the respective dilution) was added to the cMAGI or MAGI cells, followed by the virus inocula; and 24 hours later, an inhibitor of infection and cell-cell fusion (e.g., SEQ ID NO:2 (enfuvirtide)) was added to prevent secondary rounds of HIV infection and cell-cell virus spread. The cells were cultured for 2 more days, and then fixed and stained with the X-gal substrate to detect HIV-infected cells. The number of infected cells for each control and peptide dilution was determined with the CCD-imager, and then the IC50 was calculated (expressed in μg/ml).
(§2) In particular, in vitro resistance comparison studies were performed between the novel SEQ ID NO:9 compound of interest and established antiviral agent SEQ ID NO:2, described in detail as follows: MT2 cells were infected with virus isolates (IIIB, 030, 060 and 098) and cultured in increasing concentrations of SEQ ID NO:2 (enfuvirtide) or SEQ ID NO:9 to select for resistance. The initial peptide concentration was approximately 2 times the IC50 of each peptide against the corresponding wild type isolate. Peptide concentrations were maintained by adding fresh peptide every 1-3 days. Cultures were monitored for cytopathic effect (CPE) using standard techniques and when maximal CPE was achieved, a small aliquot of virus was used for subsequent rounds of infection. Peptide concentrations were increased 2 to 4-fold depending on the length of time in culture when compared to the growth rate of wild type virus. During the course of selection, peptide-free virus stocks were also collected. Peptide-free virus stocks were characterized for gp41 genotypic changes by dideoxy sequencing chemistries and phenotypic susceptibility was determined using a cMAGI infectivity assay.

584.000030 = system: 584.000030
Text: as §1, §2

[2] = system: virus isolates (IIIB, 030, 060 and 098)
Text: as §1, §2

IIIB = details: starting virus isolate IIIB
Text: as §1, §2

584.000098 = system: 584.000098
Text: as §1, §2

[3] = Intravenous pharmacokinetics in cynomolgus monkeys; type: in vivo, cynomolgus monkeys (Macaca fasicularis)
Procedure: For determining pharmacokinetic properties, an HIV fusion inhibitor peptide or a base sequence from which an HIV fusion inhibitor peptide is derived was dosed intravenously in cynomolgus monkeys (Macaca fasicularis) (other animal models may be used for determining pharmacokinetic properties, as known in the art). At various times post-dose, blood samples were drawn and plasma isolated by centrifugation. Plasma samples were stored frozen until analysis by LC-MS (liquid chromatography/mass spectrometry) in the electrospray, positive-ion mode. An HIV fusion inhibitor or base sequence was eluted from a C18 or C8 HPLC column with a gradient of acetonitrile in a buffer of 10 mM ammonium acetate, pH 6.8. At the time of analysis, plasma samples were deproteinated with either two or three volumes of acetonitrile containing 0.5% formic acid. Duplicate calibration standards in cynomolgus plasma samples were prepared at the same time as the samples and analyzed before and after the samples containing either HIV fusion inhibitor peptide or base sequence. Pharmacokinetic properties were calculated from the plasma concentration-time data using either mono-exponential or bi-exponential mathematical models. Models were derived by non-linear least squares optimization. A 1/C^2 weighting of concentrations was used. The following equations were used to calculate area-under the plasma concentration vs. time curve (AUC), total body clearance (Cl), and terminal elimination half-life (t ½).
Where A and B are intercepts and a and b are the rate constants of the exponential equations describing the distribution and elimination phases, respectively. When mono-exponential models were used, the “A” and “a” properties were eliminated.
Cl=Dose/AUC (expressed in L/K/hr)
t½=0.6903/b (expressed in hr)

Substance: Ac-TTWEAWDRAIAEYAARIEALLRALQEQQEKNEAALREL-NH2 [SEQ ID NO:9, TTWEAWDRAIAEYAARIEALLRALQEQQEKNEAALREL]
- peptide remaining detectable in solution [1]: ≥ 90%
- Fold Change in IC50 (584.000060; starting virus isolate 584.000060): 26
- Ending IC50 (584.000060; starting virus isolate 584.000060, after selection): 0.208 µg/mL
- Starting IC50 (584.000060; starting virus isolate 584.000060, before selection): 0.008 µg/mL
- Fold Change in IC50 (584.000030; starting virus isolate 584.000030): 4
- Ending IC50 (584.000030; starting virus isolate 584.000030, after selection): 0.113 µg/mL
- Starting IC50 (584.000030; starting virus isolate 584.000030, before selection): 0.028 µg/mL
- Fold Change in IC50 ([2]; Geometric Mean of four isolates): 24
- Ending IC50 ([2]; Geometric Mean of four isolates, after selection): 0.429 µg/mL
- Starting IC50 ([2]; Geometric Mean of four isolates, before selection): 0.018 µg/mL
- barrier to development of resistance in vitro, in words ([2]; compared to SEQ ID NO:2): higher barrier to development of resistance in vitro
- Fold Change in IC50 (IIIB): 231
- Ending IC50 (IIIB; after selection): 2.768 µg/mL
- Starting IC50 (IIIB; before selection): 0.012 µg/mL
- Fold Change in IC50 (584.000098; starting virus isolate 584.000098): 14
- Ending IC50 (584.000098; starting virus isolate 584.000098, after selection): 0.521 µg/mL
- Starting IC50 (584.000098; starting virus isolate 584.000098, before selection): 0.037 µg/mL
- biological half-life relative to base sequence, in words ([3]; comment on Table 2): increased biological half-life
- clearance ([3]; cynomolgus monkey, plasma, iv, dosed intravenously): < 0.333 mL/min/kg
- half-life ([3]; cynomolgus monkey, plasma, iv, dosed intravenously, read-out: Half-life (t ½; hr) (converted)): 12 h
